Numbers after ± are expanded uncertainties.
Tests used:
[1] = 101 kPa, Liquid, Vibrating tube method
[2] = xn = mol fraction of the nth substance listed; conditions: 101 kPa, Liquid, Vibrating tube method

SMILES | mass density ([1]; 288.15 K) [kg/m3] | mass density ([1]; 293.15 K) [kg/m3] | mass density ([1]; 298.15 K) [kg/m3] | mass density ([1]; 303.15 K) [kg/m3] | mass density ([1]; 308.15 K) [kg/m3] | mass density ([1]; 313.15 K) [kg/m3] | mass density ([1]; 318.15 K) [kg/m3] | mass density ([1]; 323.15 K) [kg/m3] | mass density ([2]; 288.15 K, x2 = 0) [kg/m3] | mass density ([2]; 293.15 K, x2 = 0) [kg/m3] | mass density ([2]; 298.15 K, x2 = 0) [kg/m3] | mass density ([2]; 303.15 K, x2 = 0) [kg/m3] | mass density ([2]; 308.15 K, x2 = 0) [kg/m3] | mass density ([2]; 313.15 K, x2 = 0) [kg/m3] | mass density ([2]; 318.15 K, x2 = 0) [kg/m3] | mass density ([2]; 323.15 K, x2 = 0) [kg/m3] | further results
CCCCCCC [heptane] | 687.954 ± 0.23 | 683.733 ± 0.23 | 679.494 ± 0.23 | 675.229 ± 0.24 | 670.941 ± 0.24 | 666.621 ± 0.24 | 662.273 ± 0.24 | 657.896 ± 0.24 |  |  |  |  |  |  |  |  | 
CCCCCCC [heptane] + CCCCO |  |  |  |  |  |  |  |  | 687.954 ± 0.23 | 683.733 ± 0.23 | 679.494 ± 0.23 | 675.229 ± 0.24 | 670.941 ± 0.24 | 666.621 ± 0.24 | 662.273 ± 0.24 | 657.896 ± 0.24 | 
CCCCO [butan-1-ol] | 813.373 ± 0.18 | 809.573 ± 0.18 | 805.762 ± 0.18 | 801.923 ± 0.18 | 798.053 ± 0.19 | 794.147 ± 0.19 | 790.231 ± 0.19 | 786.238 ± 0.19 |  |  |  |  |  |  |  |  | 
CCCCO [butan-1-ol] + NC1CCCCC1 |  |  |  |  |  |  |  |  |  |  |  |  |  |  |  |  | mass density ([2]; 288.15 K, x1 = 1): 813.373 ± 0.18 kg/m3; mass density ([2]; 293.15 K, x1 = 1): 809.573 ± 0.18 kg/m3; mass density ([2]; 298.15 K, x1 = 1): 805.762 ± 0.18 kg/m3; mass density ([2]; 303.15 K, x1 = 1): 801.923 ± 0.18 kg/m3; mass density ([2]; 308.15 K, x1 = 1): 798.053 ± 0.19 kg/m3; mass density ([2]; 313.15 K, x1 = 1): 794.147 ± 0.19 kg/m3; mass density ([2]; 318.15 K, x1 = 1): 790.231 ± 0.19 kg/m3; mass density ([2]; 323.15 K, x1 = 1): 786.238 ± 0.19 kg/m3

More lines, main results first:

mass density ([1]; 288.15 K) [kg/m3] | mass density ([1]; 293.15 K) [kg/m3] | mass density ([1]; 298.15 K) [kg/m3] | mass density ([1]; 303.15 K) [kg/m3] | mass density ([1]; 308.15 K) [kg/m3] | mass density ([1]; 313.15 K) [kg/m3] | mass density ([1]; 318.15 K) [kg/m3] | mass density ([1]; 323.15 K) [kg/m3] | mass density ([2]; 288.15 K, x2 = 0) [kg/m3] | mass density ([2]; 293.15 K, x2 = 0) [kg/m3] | mass density ([2]; 298.15 K, x2 = 0) [kg/m3] | mass density ([2]; 303.15 K, x2 = 0) [kg/m3] | mass density ([2]; 308.15 K, x2 = 0) [kg/m3] | mass density ([2]; 313.15 K, x2 = 0) [kg/m3] | mass density ([2]; 318.15 K, x2 = 0) [kg/m3] | mass density ([2]; 323.15 K, x2 = 0) [kg/m3] | SMILES | further results
871.29 ± 0.3 | 866.747 ± 0.3 | 862.207 ± 0.3 | 857.671 ± 0.3 | 853.138 ± 0.3 | 848.607 ± 0.3 | 844.073 ± 0.3 | 839.547 ± 0.3 |  |  |  |  |  |  |  |  | NC1CCCCC1 [cyclohexylamine] | 
 |  |  |  |  |  |  |  | 687.954 ± 0.23 | 683.733 ± 0.23 | 679.494 ± 0.23 | 675.229 ± 0.24 | 670.941 ± 0.24 | 666.621 ± 0.24 | 662.273 ± 0.24 | 657.896 ± 0.24 | CCCCCCC [heptane] + NC1CCCCC1 | 

— the NIST ThermoML archive (doi:10.1016/j.tca.2009.07.002)
